{"source": "paper PMC5485725", "about": "“QueF-Like, a Non-Homologous Archaeosine Synthase from the Crenarchaeota” (Biomolecules, 2017)", "target": "T1, QueF-like (QueF-L) from Pyrobaculum calidifontis (Pyrobaculum calidifontis, UniProt A3MSP1)", "T1 construct": "codon-optimized synthetic gene in FactorXa/LIC vector (pLBI14), expressed in E. coli BL21(DE3); N-terminal His6 tag cut by Factor Xa; starts at Met1 (primer encodes MLKVSK..., ends ...PPVYI); decamer", "T1 sequence (A3MSP1 1-109)": "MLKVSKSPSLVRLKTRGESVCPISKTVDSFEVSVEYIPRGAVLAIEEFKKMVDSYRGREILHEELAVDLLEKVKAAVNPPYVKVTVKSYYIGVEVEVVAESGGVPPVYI", "experiment": "UV-Vis titration of thioimide absorbance at […] nm", "type": "binding", "conditions": "read-out: apparent KD"}
{"smiles": "N#Cc1c[nH]c2nc(N)[nH]c(=O)c12", "note": "[preQ0]", "values": [{"measurement": "Kd", "value": 8, "unit": "µM"}]}
